From the Kinase Knowledgebase extract (Sharma et al. 2016) come the findings set out here.

The target of this assay is CDK2 (UniProt P24941). Nature of the assay: Enzyme Assay.
The IC50 is the midpoint of a concentration-inhibition curve. Higher therefore signals weaker potency. Molecule `Clc1cncc(N(Cc2ccccc2)C2CCCCC2)n1` registered an IC50 of 64 µM. This counts as double-digit micromolar.
Regarding `O[C@@H]1CCCC[C@H]1CN(c1cncc(Cl)n1)C1CCCCC1`, the 50% inhibitory concentration (IC50) was 12 µM. This IC50 is about 5.3-fold lower than that of the molecule before.
Then `NS(=O)(=O)c1cccc(Nc2cncc(Cl)n2)c1`, with 7 µM; and `Clc1cncc(NCCNc2cncc(Cl)n2)n1`, with 43 µM.
The molecule `Fc1ccc(Nc2cncc(Cl)n2)cc1` registered an IC50 of 16 µM.
The molecule `Clc1cncc(Nc2ccccn2)n1` returned an IC50 of 17 µM.
`O=C(O)c1ccc(Nc2cncc(Cl)n2)nc1` came in with a half-inhibitory concentration (IC50) of 68 µM. This IC50 lies about 4-fold higher than the previous one.
As for `Clc1cncc(NCc2cc(Oc3cncc(Cl)n3)no2)n1`, the IC50 worked out at 40 µM.
In turn, `Clc1cncc(Nc2cccnc2)n1` gave an IC50 of 27 µM.
Regarding `c1ccc(Nc2cncc(-n3ccnc3)n2)cc1`, the IC50 turned out to be 5.5 µM.
Molecule `OCCN(c1cncc(Cl)n1)C1CCCCC1` had an IC50 of 54 µM.
Molecule `Clc1cncc(N2CCN(c3ccccc3)CC2)n1` returned an IC50 of 102 µM. This IC50 lies about 1.9-fold higher than the previous one.
With `Oc1ccc(Nc2cncc(Cl)n2)cc1` the figure was 24 µM; with `Clc1cncc(-n2cnc3ccccc32)n1`, 35 µM; with `O=c1[nH]c2ccccc2n1-c1cncc(Cl)n1`, 10 µM.
In turn, `Clc1cncc(Nc2ccccc2)n1` returned a half-maximal inhibitory concentration (IC50) of 9 µM.
Molecule `Clc1cncc(NC2CCCC2)n1` showed a concentration for half-maximal inhibition (IC50) of 52 µM.
As for `CC(C)CNc1cncc(Cl)n1`, the half-maximal inhibitory concentration (IC50) is 105 µM.
In turn, `Cc1cc(Nc2cncc(Cl)n2)[nH]n1` yielded an IC50 of 49 µM.
`Clc1ccc(Nc2cncc(Cl)n2)nc1`: the 50% inhibitory concentration (IC50) is 8 µM.
In turn, `CC(C)c1nccn1-c1cncc(Nc2ccccc2)n1` yielded an IC50 of 12 µM.
Regarding `CSc1cncc(Nc2ccccc2)n1`, the IC50 was 3 µM.
The molecule `CC(C)(C)c1cc(N)n(-c2cncc(Cl)n2)n1` displayed an IC50 of 147 µM. Compared with the last molecule, the IC50 is about 49-fold higher.
With `Clc1cncc(NC(c2ccccc2)c2ccccc2)n1` the figure was 23 µM; with `Clc1cncc(N2CCc3ccccc3C2)n1`, 98 µM.
With `Cc1cc2cc(CNc3cncc(Cl)n3)ccc2[nH]1` the figure was 14 µM.
In turn, `CCOC(=O)c1ccc(CNc2cncc(Cl)n2)o1` returned an IC50 of 36 µM.
In turn, `NCCCN(c1cncc(Cl)n1)C1CCCCC1` registered a half-maximal inhibitory concentration (IC50) of 4 µM.
Then `FC(F)(F)COc1cncc(Nc2ccccc2)n1`, with 17 µM; and `NS(=O)(=O)CCNc1cncc(Cl)n1`, with 60 µM; and `Clc1cncc(NC[C@H]2CCCN2)n1`, with 5 µM.
With `Clc1cncc(NC2CCCCC2)n1` the figure was 27 µM.
With `Clc1cncc(NCc2ccc(Cl)s2)n1` the figure was 32 µM; with `NC(=O)c1sccc1Nc1cncc(Cl)n1`, 9 µM.
In turn, `CC(=O)Nc1ccc(Nc2cncc(Cl)n2)cc1` gave an IC50 of 15 µM.
Consider `Oc1cccc(Nc2cncc(Cl)n2)c1`, for which the IC50 is 6 µM.
In turn, `Clc1cncc(-n2cccn2)n1` registered an IC50 of 82 µM.
`Clc1cncc(NCCc2c[nH]cn2)n1` returned a half-inhibitory concentration (IC50) of 73 µM.
Then `c1cn(-c2cncc(-n3ccnc3)n2)cn1`, with 105 µM.
